Laboratory results as given in patent EP0944596B1, “1-ACRYLOYLINDOLINE DERIVATIVES AND THEIR USE AS PRODRUGS OF ANTICANCER AGENTS” (Auckland Uniservices Limited, priority 1996, dated 1998).

Tests used:
[1] = tested on: UV4 cells; test: Growth inhibition (cytotoxicity) of UV4 cells, 18 h drug exposure, methylene blue staining; assay type: cell-based; conditions: Cricetulus griseus
Protocol: (§1) To evaluate the activity of a compound UV4 cells were maintained in exponential phase growth (doubling times 14 and 15 h respectively) using Alpha MEM containing fetal calf serum (10% v/v) without antibiotics, and were subcultured twice weekly by trypsinization. Bulk cultures were prepared for experiments by seeding cells in spinner flasks at 10^4 cells/mL in the above medium with addition of penicillin (100 IU/mL) and streptomycin (100 µg/mL). Cultures were initiated in 96-well microtiter trays to give 200 (AA8) or 300 (UV4) cells in 0.05 mL per well. After growth in a CO2 incubator for 24 h, drugs were added in culture medium, using serial two-fold dilutions to provide duplicate cultures at five different concentrations for each of eight drugs (plus eight controls) per tray. After 18 h drugs were removed by washing cultures three times with fresh medium, and the trays were incubated for a further 78 h. Cell density was then determined by staining with metbylene blue as described [Finlay, G.J.; Baguley, B.C.; Wilson, W.R. Anal. Biochem., 1984, 139: 272-277]. The IC50 was calculated as the drug concentration providing 50% inhibition of growth relative to the controls.
(§2) To evaluate the activation of the compound by E. coli nitroreductase 2 (NR2) the experiment was repeated but in addition purified E. coli nitroreductase enzyme (1 µg/mL) and NADH (1 mM, as cofactor) was added during the entire time of the incubation. As a comparison the experiment was also repeated but with the addition only of NADH and not NR2.
(§3) Where multiple determinations were carried out the IC50 is given as an average ± SEM. Where one determination only was carried out a single IC50 value is given.

[2] = tested on: UV4 cells; test: Activation by E. coli nitroreductase 2 (NR2): growth inhibition of UV4 cells with purified enzyme and NADH added; assay type: cell-based; conditions: for IC50: Cricetulus griseus, UV4 cells, purified E. coli nitroreductase enzyme (1 µg/mL) and NADH (1 mM) during the entire incubation, read-out: IC50 (nM) drug + NADH + NR2; for Ratio*: IC50 drug alone/IC50 drug + NADH + NR2, intra-experiment ratios, 1080 min
Protocol: as §1, §2, §3

[3] = background statement, literature; cited from earlier work
[4] = 18 h exposure, then 78 h further incubation, average ± SEM where multiple determinations, read-out: IC50 (nM) drug alone
[5] = NADH (1 mM) added, no NR2, 18 h exposure, read-out: IC50 (nM) drug + NADH

Structure (SMILES) | IC50 [1, 4] | IC50 [1, 5] | IC50 [2] | Ratio* [2] | IC50 [3]
CCCC(=O)Nc1cc(/C=C/C(=O)N2CC(CCl)c3ccc(N)cc32)n(C)c1 (stereo not drawn) [Compound 8, 6-amino-1-[(E)-3-(4-butyramido-1-methyl-2-pyrrole)acryloyl]-3-(chloromethyl)indoline] | 38 nM | 24 nM | 35 nM | 1.1 | –
CCCC(=O)Nc1cc(/C=C/C(=O)N2CC(CCl)c3ccc([N+](=O)[O-])cc32)n(C)c1 (stereo not drawn) [Compound 7, 1-[(E)-3-(4-butyramido-1-methyl-2-pyrrole)acryloyl]-3-(chloromethyl)-6-nitroindoline] | 2940 ± 320 nM | 1080 ± 340 nM | 43 ± 4 nM | 70±13 | –
Cn1cccc1C(=O)Nc1cccc(/C=C/C(=O)N2CC(CCl)c3ccc([N+](=O)[O-])cc32)c1 (stereo not drawn) [Compound 12, 1-[(E)-3-(1-methylpyrrole-2-carboxamido)cinnamoyl]-3-chloromethyl-6-nitroindoline] | ~5000 nM | – | – | ca. 30 | –
CC(=O)Nc1cccc(/C=C/C(=O)N2CC(CCl)c3ccc([N+](=O)[O-])cc32)c1 (stereo not drawn) [Compound 13, 1-[(E)-3-(acetylamino)cinnamoyl]-3-chloromethyl-6-nitroindoline] | 335 nM | 339 nM | 74 ± 23 nM | 3.5 | –
COc1c(O)c2c(c3cc(C(=O)N4CCc5c4c(O)c(OC)c4[nH]c(C(=O)N6CC7CC78C6=CC(=O)c6[nH]cc(C)c68)cc54)[nH]c13)CCN2C(N)=O (stereo not drawn) [CC-1065] | – | – | – | – | low pM range
